The results in this text go back to EP0810245A1, “Catalyst for low temperature cure of blocked isocyanates” (ELF ATOCHEM NORTH AMERICA, INC., priority 1996, dated 1997).

A short description of test [1]: Gel time by Brookfield viscosity (time to 2500 cps), masterbatch of Examples 1-8 and A-J. Also noted: key to Gel Time @250F (120C): minutes to reach target viscosity (gel time); GEL TIME @ 130°C: unit: min. The following applies: for GEL TIME @ 130°C: 0.16%Sn, time to reach 2500 cps (gel times in mins). On the procedure: (§1) Solids content was maintained between 50-60%.
(§2) Comparison of catalyst activity was determined by monitoring viscosity as a function of cure time. A Brookfield viscometer fitted with a heated cell was connected to a strip chart recorder. A 10 gram aliquot of the formulation with the desired catalyst was placed in the chamber and rapidly heated to the test temperature. A #27 speed spindle was immersed into the solution and the initial viscosity measured. The rate of increase in viscosity was monitored until a viscosity of 2500 cps was achieved. In almost all the examples the formulation gelled at this viscosity. The time required to reach this viscosity was termed "gel time" at the test temperature. This technique provides information on the time required to reach a target viscosity and on the rate of increase in viscosity for a given system and compares the relative reactivity of different catalysts in a specific formulation at the same temperature. Variability in gel time is +/- 0.5-1.0 mins and is limited by the accuracy of weighing of the catalyst. […] Gel time measurements were then correlated with film properties.
The components were stirred to ensure complete solubility, usually from 2 to 4 hours. • Desmophen A565 (215g, 42.9 wt%) • Desmodur BL 3175 A (140g, 27.9 wt%) • methyl amyl ketone (58.5g, 11.7 wt%) • methy isobutyl ketone (58.5g, 11.7 wt%) • propylene glycol methyl ether acetate (29.0g, 5.8 wt%)
(§3) For each evaluation, a 10g aliquot of this master batch was removed and the appropriate catalyst added.

Test [2] can be described thus: Gel time by Brookfield viscosity (time to 2500 cps), masterbatch of Examples 9-12 and K, Zn salts as co-catalysts. The following applies: 0.16 %Sn, co-catalyst 0.07 %Zn where used. On the procedure: as §1, §2
In comparative example K and operative examples 9 to 12 a masterbatch of the following mixture was prepared. The components were stirred to ensure complete solubility, usually from 2 to 4 hours. • Desmophen A565 215g • Desmodur BL 3175 A 140g • Methyl isobutyl ketone 146.4g
as §3

On to `CCC[CH2][Sn](=[O])[CH2]CCC` [C, Dibutyl Sn Oxide, reference compound], for which the “Gel Time @266F (130C)” value in test [1] (0.16 %Sn) is 23.2 min. Also, in test [1], the “GEL TIME @ 130°C” value amounted to 23.2.

For the compound “Dibutyl Diformyloxy Stannox (n=14) [Example 6]”, in test [2], the “Gel Time @ 120°C” value amounted to 29 min and the “Gel Time @ 125°C” value is on record as 19 min. Besides, in test [1] (0.20 %Sn), the “Gel Time @250F (120C)” value is 24.1 and the “Gel Time @266F (130C)” value is given as 14.4 min.

For the compound `CCC[CH2][Sn]([CH2]CCC)([O]C(C)=O)[O]C(C)=O` [B, Dibutyl Sn Diacetate, reference compound], in test [1] (0.16 %Sn), the “Gel Time @250F (120C)” value came to 45 and the “Gel Time @266F (130C)” value is recorded as 21.3 min. The “GEL TIME @ 130°C” value in test [1] came to 21.2.

For the compound “Dibutyl Diacetoxy Stannox n=3 [Example 1]”, in test [1] (0.16 %Sn), the “Gel Time @250F (120C)” value came out at 36.1 and the “Gel Time @266F (130C)” value was found to be 17.2 min. The “GEL TIME @ 130°C” value in test [1] worked out at 17.2.

With “Dibutyl Diacetoxy Stannox n=6 [Example 2]”, in test [1] (0.16 %Sn), the “Gel Time @250F (120C)” value is given as 32.5 and the “Gel Time @266F (130C)” value stood at 16.5 min. For the same compound, in test [1], the “GEL TIME @ 130°C” value was determined as 16.4.

As to “Dibutyl Di Octylmaleate Stannox n=6 [Example 3]”, the “GEL TIME @ 130°C” value in test [1] came to 20.4.

Consider “Dibutyl Diformyloxy Stannox (n=3) [Example 4]”, for which, in test [1] (0.20 %Sn), the “Gel Time @250F (120C)” value stood at 27.5 and the “Gel Time @266F (130C)” value turned out to be 15.9 min.

Take `CCC[CH2][Sn]([CH2]CCC)([O]C(C)=O)[O][Sn]([CH2]CCC)([CH2]CCC)[O]C(C)=O` [D, Dibutyl Diacetoxy Stannox n=0, reference compound]: in test [1] (0.16 %Sn), the “Gel Time @250F (120C)” value came to 38 and the “Gel Time @266F (130C)” value was found to be 18.6 min. For the same compound, the “GEL TIME @ 130°C” value in test [1] amounted to 18.6.

As for `CCCCCCCCCCCC(=O)[O][Sn]([CH2]CCC)([CH2]CCC)[O]C(=O)CCCCCCCCCCC` [A, Dibutyl Sn Dilaurate, reference compound], in test [2], the “Gel Time @ 120°C” value was 45 min and the “Gel Time @ 125°C” value is 29 min. The “GEL TIME @ 130°C” value in test [1] was 22.2. Moreover, the “Gel Time @250F (120C)” value in test [1] (0.20 %Sn) was determined as 48.7.

For “Dibutyl Diformyloxy Stannox (n=6) [Example 5]”, the “Gel Time @250F (120C)” value in test [1] (0.20 %Sn) was 25.6.
